According to ChEMBL document CHEMBL4340575, “Design, synthesis and biological evaluation of novel aryl-acrylic derivatives as novel indoleamine-2,3-dioxygenase 1 (IDO1) inhibitors” (Bioorg Med Chem, 2019):

How the values were obtained:
[1] = target: T1, Indoleamine 2,3-dioxygenase 1 (Homo sapiens, UniProt P14902); assay: Inhibition of purified recombinant human IDO1 using L-tryptophan substrate incubated fro 30 mins
[2] = target: T1, Indoleamine 2,3-dioxygenase 1; assay: Inhibition of IDO1 in interferon-gamma-induced human HeLa cells using L-tryptophan substrate incubated for 24 hrs; format: cell-based
HeLa = assay: Toxicity in human HeLa cells assessed as reduction in cell viability; format: cell-based

T1 sequence (P14902 whole entry): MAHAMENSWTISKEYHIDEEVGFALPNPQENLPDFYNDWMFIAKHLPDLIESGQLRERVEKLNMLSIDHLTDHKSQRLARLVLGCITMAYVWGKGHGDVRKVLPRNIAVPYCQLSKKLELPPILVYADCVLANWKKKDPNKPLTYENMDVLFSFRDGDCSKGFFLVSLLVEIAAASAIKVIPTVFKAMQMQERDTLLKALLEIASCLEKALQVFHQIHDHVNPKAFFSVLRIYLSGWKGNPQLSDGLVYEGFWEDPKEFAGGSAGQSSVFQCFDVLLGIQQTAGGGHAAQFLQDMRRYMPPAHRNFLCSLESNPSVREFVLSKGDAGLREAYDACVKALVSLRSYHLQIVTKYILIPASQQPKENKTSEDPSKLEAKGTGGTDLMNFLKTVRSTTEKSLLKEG

**Q.** For `CCCCN(CCCC)c1ccc(/C(C)=C/C(=O)O)cc1NC(=O)N/N=C/c1ccccc1C(F)(F)F`, which IC50 [1] is on record?
**A.** 12.3 µM

**Q.** What about the IC50 [2] of the same compound?
**A.** 2.83 µM

**Q.** What about the Activity (HeLa) of the same compound?
**A.** Non-Toxic

**Q.** How did the IC50 [1] turn out when `CCCCN(CCCC)c1ccc(/C(C)=C/C(=O)O)cc1NC(=O)N/N=C/c1ccc(Cl)cc1` was run?
**A.** 14.4 µM

**Q.** And the IC50 [2]?
**A.** 3.87 µM

**Q.** And the Activity (HeLa)?
**A.** Non-Toxic

**Q.** Which results are given for `C/C(=C\C(=O)O)c1ccc(N(CC(C)C)CC(C)C)c(NC(=O)N/N=C/c2ccccc2F)c1`?
**A.** IC50 [1]: 10.1 µM; IC50 [2]: 1.95 µM; Activity (HeLa): Non-Toxic

**Q.** For `C/C(=C\C(=O)O)c1ccc(N2CCOCC2)c(-n2cc(CNc3ccc(F)cc3)nn2)c1`, which IC50 [1] is on record?
**A.** 58.3 µM

**Q.** And the IC50 [2]?
**A.** 20 µM

**Q.** For `C/C(=C\C(=O)O)c1ccc(N(CC(C)C)CC(C)C)c(NC(=O)N/N=C/c2ccc(Cl)cc2)c1`, which IC50 [1] is on record?
**A.** 10.2 µM

**Q.** What about the IC50 [2] of the same compound?
**A.** 1.02 µM

**Q.** And the Activity (HeLa)?
**A.** Non-Toxic
